For the series, the system named is rodent carcinogenicity bioassays, tumor incidence. Put plainly: CCRIS carcinogenicity studies. An outline of the steps: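 Archive of carcinogenicity, mutagenicity, tumor promotion and tumor inhibition results drawn from journals, NCI reports and other sources, expert-reviewed; covers 1985-2011 and is no longer updated.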

Data on seven compounds can be found in PubChem BioAssay AID1259411 (Chemical Carcinogenesis Research Information System (CCRIS), 2018).

Each structure is given as a SMILES string. Active and inactive are the calls of the source. The rule behind the calls is not given here.

On to `CS(=O)(=O)OCCCNCCCOS(C)(=O)=O`, for which the carcinogen call runs as follows: (Species: MOUSE, Strain/Sex: B6C3F1/FEMALE, Route: INTRAPERITONEAL, Dose: 0, 20, 40 MG/KG 3/WK FOR 52 WK (STUDY DURATION: 52 WK), Dose: 0, 20, 40 MG/KG 3/WK FOR 52 WK (STUDY DURATION: 52 WK), Tumor Site: Type of Lesion: SUBCUTANEOUS TISSUE: SQUAMOUS CELL CARCINOMA, HEMATOPOIETIC SYSTEM: MALIGNANT LYMPHOMA) “equivocal”; (Species: MOUSE, Strain/Sex: B6C3F1/MALE, Route: INTRAPERITONEAL, Dose: 0, 20, 40 MG/KG 3/WK FOR 52 WK (STUDY DURATION: 52 WK), Dose: 0, 20, 40 MG/KG 3/WK FOR 52 WK (STUDY DURATION: 52 WK), Tumor Site: Type of Lesion: SUBCUTANEOUS TISSUE: SQUAMOUS CELL CARCINOMA, HEMATOPOIETIC SYSTEM: MALIGNANT LYMPHOMA) “equivocal”; (Species: RAT, Strain/Sex: SPRAGUE-DAWLEY/FEMALE, Route: INTRAPERITONEAL, Dose: 0, 12 MG/KG 3/WK FOR 52 WK, 24 MG/KG 3/WK FOR 34 WK, 48 MG/KG 3/WK FOR 27 WK (STUDY DURATION: 27-52 WK), Dose: 0, 12 MG/KG 3/WK FOR 52 WK, 24 MG/KG 3/WK FOR 34 WK, 48 MG/KG 3/WK FOR 27 WK (STUDY DURATION: 27-52 WK), Tumor Site: Type of Lesion: PERITONEUM: SARCOMA, FIBROMA OR FIBROSARCOMA) “equivocal”; (Species: RAT, Strain/Sex: SPRAGUE-DAWLEY/MALE, Route: INTRAPERITONEAL, Dose: 0, 12 MG/KG 3/WK FOR 52 WK, 24 MG/KG 3/WK FOR 34 WK, 48 MG/KG 3/WK FOR 23 WK (STUDY DURATION: 23-52 WK), Dose: 0, 12 MG/KG 3/WK FOR 52 WK, 24 MG/KG 3/WK FOR 34 WK, 48 MG/KG 3/WK FOR 23 WK (STUDY DURATION: 23-52 WK), Tumor Site: Type of Lesion: PERITONEUM: SARCOMA, FIBROMA OR FIBROSARCOMA) “equivocal”.

For `COc1cccc2c1C(=O)c1c(O)c3c(c(O)c1C2=O)C[C@@](O)(C(=O)CO)C[C@@H]3O[C@H]1C[C@H](N)[C@H](O)[C@H](C)O1`, the carcinogen call was “active; positive” (Species: RAT, Strain/Sex: SPRAGUE-DAWLEY/FEMALE, Route: INTRAVENOUS, Dose: 0, 5, 10 MG/KG IN SALINE SOLUTION ONCE (STUDY DURATION: 1 YR), Dose: 0, 5, 10 MG/KG IN SALINE SOLUTION ONCE (STUDY DURATION: 1 YR), Tumor Site: Type of Lesion: MAMMARY GLAND: FIBROADENOMA, ADENOCARCINOMA) and “active; positive” (Species: RAT, Strain/Sex: SPRAGUE-DAWLEY/MALE, Route: INTRAVENOUS, Dose: 0, 5, 10 MG/KG IN SALINE SOLUTION ONCE (STUDY DURATION: 1 YR), Dose: 0, 5, 10 MG/KG IN SALINE SOLUTION ONCE (STUDY DURATION: 1 YR), Tumor Site: Type of Lesion: MAMMARY GLAND: ADENOCARCINOMA).

For `O=S(=O)([O-])[O-].[O]=[V+2]`, the carcinogen call by setting is: (Species: MOUSE, Strain/Sex: SWISS/FEMALE, Route: ORAL, Dose: 0, 5 PPM IN DRINKING WATER FOR DURATION OF STUDY (STUDY DURATION: LIFE SPAN)) “inactive; negative”; (Species: MOUSE, Strain/Sex: SWISS/MALE, Route: ORAL, Dose: 0, 5 PPM IN DRINKING WATER FOR DURATION OF STUDY (STUDY DURATION: LIFE SPAN)) “inactive; negative”.

As to `COCCN(N=O)C(N)=O`, for the setting “Species: RAT, Strain/Sex: F344/FEMALE, Route: INTRAVESICULAR, Dose: 0, 3.2 MG 2/WK FOR 17 WK (STUDY DURATION: LIFETIME), Tumor Site: Type of Lesion: BLADDER: TUMOR”, the carcinogen call is “active; positive”.

For `Clc1c(Cl)c(Cl)c(Cl)c(Cl)c1Cl`, the carcinogen call is “active; positive” (Species: HAMSTER, Route: ORAL, Tumor Site: Type of Lesion: THYROID GLAND, LIVER); “active; positive” (Species: MOUSE, Route: ORAL, Tumor Site: Type of Lesion: LIVER); “inactive; negative” (Species: RAT, Strain/Sex: F344/FEMALE, Route: ORAL, Dose: 0, 0.02% IN DIET FOR 30 WK (STUDY DURATION: 35 WK)); “active; positive” (Species: RAT, Strain/Sex: F344/FEMALE, Route: ORAL, Dose: 0, 0.02% OF DIET FOR 90 WK (STUDY DURATION: 90 WK), Tumor Site: Type of Lesion: LIVER: HEPATOCELLULAR CARCINOMA OR NEOPLASTIC NODULE); “inactive; negative” (Species: RAT, Strain/Sex: F344/MALE, Route: ORAL, Dose: 0, 0.02% IN DIET FOR 30 WK (STUDY DURATION: 35 WK)); “inactive; negative” (Species: RAT, Strain/Sex: F344/MALE, Route: ORAL, Dose: 0, 0.02% OF DIET FOR 90 WK (STUDY DURATION: 90 WK)).

For `CC(C)CCC[C@@H](C)[C@H]1CC[C@H]2[C@@H]3CC=C4C[C@@H](OC(=O)Cc5ccc(N(CCCl)CCCl)cc5)CC[C@]4(C)[C@H]3CC[C@]12C`, the carcinogen call (Species: MOUSE, Strain/Sex: B6C3F1/FEMALE, Route: GAVAGE, Dose: 0, 7, 15, 30 MG/KG 3/WK FOR 52-88 WK (STUDY DURATION: 62-104 WK), Dose: 0, 7, 15, 30 MG/KG 3/WK FOR 52-88 WK (STUDY DURATION: 62-104 WK), Tumor Site: Type of Lesion: LUNG: ALVEOLAR/BRONCHIOLAR ADENOMA, CARCINOMA, MYOCARDIUM: SARCOMA, OVARIES: TUBULAR ADENOMA, HEMATOPOIETIC SYSTEM (LEUK, Tumor Site: Type of Lesion: LUNG: ALVEOLAR/BRONCHIOLAR ADENOMA, CARCINOMA, MYOCARDIUM: SARCOMA, OVARIES: TUBULAR ADENOMA, HEMATOPOIETIC SYSTEM (LEUK) is “active; positive”; the carcinogen call (Species: MOUSE, Strain/Sex: B6C3F1/MALE, Route: GAVAGE, Dose: 0, 7, 15, 30 MG/KG 3/WK FOR 52-102 WK (STUDY DURATION: 74-104 WK), Dose: 0, 7, 15, 30 MG/KG 3/WK FOR 52-102 WK (STUDY DURATION: 74-104 WK), Tumor Site: Type of Lesion: LUNG: ALVEOLAR/BRONCHIOLAR ADENOMA, CARCINOMA, HEMATOPOIETIC SYSTEM (LEUKEMIA), LYMPHATIC SYSTEM: LYMPHOMA, MYOCARDIUM:, Tumor Site: Type of Lesion: LUNG: ALVEOLAR/BRONCHIOLAR ADENOMA, CARCINOMA, HEMATOPOIETIC SYSTEM (LEUKEMIA), LYMPHATIC SYSTEM: LYMPHOMA, MYOCARDIUM:) was “active; positive”; the carcinogen call (Species: RAT, Strain/Sex: SPRAGUE-DAWLEY/FEMALE, Route: GAVAGE, Dose: 0, 5, 10 MG/KG 3/WK FOR 52 WKS (STUDY DURATION: 84-85 WK), Dose: 0, 5, 10 MG/KG 3/WK FOR 52 WKS (STUDY DURATION: 84-85 WK), Tumor Site: Type of Lesion: MAMMARY GLAND: ADENOCARCINOMA, FIBROADENOMA) was “active; positive”; the carcinogen call (Species: RAT, Strain/Sex: SPRAGUE-DAWLEY/MALE, Route: GAVAGE, Dose: 0, 5, 10 MG/KG 3/WK FOR 52 WK (STUDY DURATION: 84-85 WK), Dose: 0, 5, 10 MG/KG 3/WK FOR 52 WK (STUDY DURATION: 84-85 WK)) was “inactive; negative”.

Consider `c1ccc(-c2ccccc2)cc1`, for which the carcinogen call is, setting by setting: (Species: MOUSE, Strain/Sex: CRJ:BDF1/FEMALE, Route: ORAL, Dose: 667, 2000, 6000 PPM IN DIET FOR 2 YRS (STUDY DURATION: 2 YRS), Dose: 667, 2000, 6000 PPM IN DIET FOR 2 YRS (STUDY DURATION: 2 YRS), Tumor Site: Type of Lesion: LIVER: HEPATOCELLULAR ADENOMA AND CARCINOMA) “active; positive”; (Species: MOUSE, Strain/Sex: CRJ:BDF1/MALE, Route: ORAL, Dose: 0, 667, 2000, 6000 PPM IN DIET FOR 2 YRS (STUDY DURATION: 2 YRS), Dose: 0, 667, 2000, 6000 PPM IN DIET FOR 2 YRS (STUDY DURATION: 2 YRS)) “inactive; negative”; (Species: RAT, Strain/Sex: F344/FEMALE, Route: ORAL, Dose: 0, 500, 1500, 4500 PPM IN DIET FOR 105 WK (STUDY DURATION: 105 WK ), Dose: 0, 500, 1500, 4500 PPM IN DIET FOR 105 WK (STUDY DURATION: 105 WK )) “inactive; negative”; (Species: RAT, Strain/Sex: F344/MALE, Route: ORAL, Dose: 0, 500, 1500, 4500 PPM IN DIET FOR 105 WK (STUDY DURATION: 105 WK ), Dose: 0, 500, 1500, 4500 PPM IN DIET FOR 105 WK (STUDY DURATION: 105 WK ), Tumor Site: Type of Lesion: URINARY BLADDER: TRANSITIONAL CELL PAPILLOMA, TRANSITIONAL CELL CARCINOMA) “active; positive”.
